Source: patent publication US10030016B2 (Sunesis Pharmaceuticals, Inc., priority 2009, dated 2018)
Like-named read-outs stand apart in the source and are kept apart here.

Columns and labels:
PDK1 = PDK1 (Homo sapiens (Human), UniProt O15530); assay: PDK1 kinase assay (coupled PDK1/AKT/FAM-crosstide assay, IMAP fluorescence polarization); format: biochemical; conditions: inhibition of PDK1 in vitro
Procedure, shortened: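 Inhibition is derived by 4-parameter fitting of ΔmP from an IMAP fluorescence polarization read of FAM-crosstide (100 nM) phosphorylation. The cascade ran 30 min at 25 °C with 40 μM ATP, using insect-cell GST-PDK1 51-359 (0.75 nM) driving 10 nM unphosphorylated AKT2 140-467-PIFtide fusion.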

[1] = system: phospho-akt (Thr308) in PC-3 cells; assay: Inhibition of phospho-akt (Thr308) in PC-3 cells, MSD phospho-akt 308 ELISA kit; format: cell-based; conditions: Homo sapiens, inhibition of P308 Akt in PC-3 cells using MSD, 2 hours, no serum, read-out: EC50
Procedure, shortened: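 Read-out is MSD electrochemiluminescence of Akt phosphorylated at Thr308 in lysates of PC-3 cells treated 2 h with compound in serum-free medium. Wortmannin at 5 μM defined the low control and DMSO the high control.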

Chain of PDK1 (O15530 51-359): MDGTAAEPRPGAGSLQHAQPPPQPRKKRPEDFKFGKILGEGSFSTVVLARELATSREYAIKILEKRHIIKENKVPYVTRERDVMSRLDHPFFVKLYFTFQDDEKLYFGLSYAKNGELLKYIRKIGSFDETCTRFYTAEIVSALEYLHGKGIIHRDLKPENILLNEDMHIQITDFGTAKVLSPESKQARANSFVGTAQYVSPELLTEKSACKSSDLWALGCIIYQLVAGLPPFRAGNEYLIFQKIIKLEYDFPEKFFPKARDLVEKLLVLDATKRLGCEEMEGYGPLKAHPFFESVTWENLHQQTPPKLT

SMILES | IC50 (PDK1) | EC50 [1] | EC50 ([1]; PC-3, 2 h)
C[C@H](NC(=O)c1cc(C2=CCOC2)cnc1NCc1ccc(-c2cn(C)c3ncnc(N)c23)cc1)c1ccc(F)cc1 [Example 248, (S)-2-(4-(4-amino-7-methyl-7H-pyrrolo[2,3-d]pyrimidin-5-yl)benzylamino)-5-(2,5-dihydrofuran-3-yl)-N-(1-(4-fluorophenyl)ethyl) nicotinamide] | < 0.1 µM | < 1 µM | 
C[C@H](NC(=O)c1cc(C#N)cnc1NCC#Cc1cnc2[nH]ncc2c1)c1ccc(F)cc1 [Example 249, (S)-2-(3-(1H-pyrazolo[3,4-b]pyridin-5-yl)prop-2-ynylamino)-5-cyano-N-(1-(4-fluorophenyl)ethyl)nicotinamide] | > 5 µM | > 10 µM | 
CNc1ncc2cc(OCCNc3ncc(C#N)cc3C(=O)N[C@@H](C)c3ccc(F)cc3)ccc2n1 [Example 250, (S)-5-cyano-N-(1-(4-fluorophenyl)ethyl)-2-(2-(2-(methylamino)quinazolin-6-yloxy)ethylamino)nicotinamide] | < 0.1 µM | < 1 µM | 
CNc1ncc2cc(O[C@H](C)CNc3ncc(C#N)cc3C(=O)N[C@@H](C)c3ccc(F)cc3)ccc2n1 [Example 251, 5-cyano-N-((S)-1-(4-fluorophenyl)ethyl)-2-((R)-2-(2-(methylamino)quinazolin-6-yloxy)propylamino)nicotinamide] | > 5 µM | 1 to 10 µM | 
CNc1ncc2cc(O[C@H](C)CNc3ncc(C#N)nc3C(=O)N[C@@H](C)c3ccc(F)c(F)c3)ccc2n1 [Example 252, 6-cyano-N-((S)-1-(3,4-difluorophenyl)ethyl)-3-((R)-2-(2-(methylamino)quinazolin-6-yloxy)propylamino)pyrazine-2-carboxamide] | 0.1 to 1 µM |  | 1 to 10 µM
CNc1ncc2cc(O[C@@H](C)CNc3ncc(C#N)cc3C(=O)N[C@@H](C)c3ccc(F)cc3)ccc2n1 [Example 253, 5-cyano-N-((S)-1-(4-fluorophenyl)ethyl)-2-((S)-2-(2-(methylamino)quinazolin-6-yloxy)propylamino)nicotinamide] | 1 to 5 µM | > 10 µM | 
CNc1ncc2cc(O[C@@H](C)CNc3ncc(C#N)nc3C(=O)N[C@@H](C)c3ccc(F)c(F)c3)ccc2n1 [Example 254, 6-cyano-N-((S)-1-(3,4-difluorophenyl)ethyl)-3-((S)-2-(2-(methylamino)quinazolin-6-yloxy)propylamino)pyrazine-2-carboxamide] | 0.1 to 1 µM |  | 1 to 10 µM
CNc1ncc2cc(C#CCNc3ncc(C#N)cc3C(=O)N[C@@H](C)c3ccc(F)cc3)ccc2n1 [Example 255, (S)-5-cyano-N-(1-(4-fluorophenyl)ethyl)-2-(3-(2-(methylamino)quinazolin-6-yl)prop-2-ynylamino)nicotinamide] | < 0.1 µM | < 1 µM | 
CNc1ncc2cc(C#CCNc3ncc(C(F)(F)F)cc3C(=O)NCc3ccc(F)c(F)c3)ccc2n1 [Example 256, N-(3,4-difluorobenzyl)-2-(2-(2-(methylamino)quinazolin-6-yl)prop-2-ynylamino)-5-(trifluoromethyl)nicotinamide] | < 0.1 µM | 1 to 10 µM | 
N#Cc1cnc2c(c1)c(NCc1ccc(F)c(F)c1)nn2Cc1ccc(-c2cnc(N)cn2)cc1 [Example 259, 1-(4-(5-aminopyrazin-2-yl)benzyl)-3-(3,4-difluorobenzylamino)-1H-pyrazolo[3,4-b]pyridine-5-carbonitrile] | 0.1 to 1 µM | > 10 µM | 
Nc1n[nH]c2ncc(-c3ccc(CNc4ncc(C(F)(F)F)cc4C(=O)NC4CC4)cc3)cc12 [Example 260, 2-(4-(3-amino-1H-pyrazolo[3,4-b]pyridin-5-yl)benzylamino)-N-cyclopropyl-5-(trifluoromethyl)nicotinamide] | 0.1 to 1 µM | 1 to 10 µM | 
COc1cc(F)ccc1NC(=O)c1cc(C(F)(F)F)cnc1NCc1ccc(-c2cnc3[nH]nc(N)c3c2)cc1 [Example 261, 2-(4-(3-amino-1H-pyrazolo [3,4-b]pyridin-5-yl)benzylamino)-N-(4-fluoro-2-methoxyphenyl)-5-(trifluoromethyl)nicotinamide] | < 0.1 µM | 1 to 10 µM | 
Nc1n[nH]c2ncc(-c3ccc(CNc4ncc(C(F)(F)F)cc4C(=O)Nc4cccc(F)c4)cc3)cc12 [Example 262, 2-(4-(3-amino-1H-pyrazolo [3,4-b]pyridin-5-yl)benzylamino)-N-(3-fluorophenyl)-5-(trifluoromethyl) nicotinamide] | < 0.1 µM | < 1 µM | 
Nc1n[nH]c2ncc(-c3ccc(CNc4ncc(C(F)(F)F)cc4C(=O)Nc4ccc(F)c(F)c4)cc3)cc12 [Example 263, 2-(4-(3-amino-1H-pyrazolo [3,4-b]pyridin-5-yl)benzylamino)-N-(3,4-difluorophenyl)-5-(trifluoromethyl) nicotinamide] | < 0.1 µM | < 1 µM | 
Nc1n[nH]c2ncc(-c3ccc(CNc4ncc(C(F)(F)F)cc4C(=O)NCC4CCCC4)cc3)cc12 [Example 264, 2-(4-(3-amino-1H-pyrazolo [3,4-b]pyridin-5-yl)benzylamino)-N-(cyclopentylmethyl)-5-(trifluoromethyl) nicotinamide] | < 0.1 µM | 1 to 10 µM | 
Nc1n[nH]c2ncc(-c3ccc(CNc4ncc(C(F)(F)F)cc4C(=O)NCC4CCCO4)cc3)cc12 (centres unmarked) [Example 265, 2-(4-(3-amino-1H-pyrazolo [3,4-b]pyridin-5-yl)benzylamino)-N-((tetrahydrofuran-2-yl)methyl)-5-(trifluoromethyl) nicotinamide] | < 0.1 µM |  | 1 to 10 µM
Nc1n[nH]c2ncc(-c3ccc(CNc4ncc(C(F)(F)F)cc4C(=O)N[C@H](CO)c4ccc(F)cc4)cc3)cc12 [Example 266] | 0.1 to 1 µM | > 10 µM | 
Nc1n[nH]c2ncc(-c3ccc(CNc4ncc(C(F)(F)F)cc4C(=O)Nc4ccc(F)nc4)cc3)cc12 [Example 267, 2-(4-(3-amino-1H-pyrazolo [3,4-b]pyridin-5-yl)benzylamino)-N-(6-fluoropyridin-3-yl)-5-(trifluoromethyl) nicotinamide] | < 0.1 µM | < 1 µM | 
Nc1n[nH]c2ncc(-c3ccc(CNc4ncc(C(F)(F)F)cc4C(=O)NCC4CCOC4)cc3)cc12 (centres unmarked) [Example 268, 2-(4-(3-amino-1H-pyrazolo [3,4-b]pyridin-5-yl)benzylamino)-N-((tetrahydro-furan-3-yl)methyl)-5-(trifluoromethyl) nicotinamide] | 0.1 to 1 µM | > 10 µM | 
Nc1n[nH]c2ncc(-c3ccc(CNc4ncc(C(F)(F)F)cc4C(=O)NCCC4CC4)cc3)cc12 [Example 269, 2-(4-(3-amino-1H-pyrazolo [3,4-b]pyridin-5-yl)benzylamino)-N-(2-cyclopropylethyl)-5-(trifluoromethyl) nicotinamide] | < 0.1 µM | 1 to 10 µM | 
Cn1cnc(CNC(=O)c2cc(C(F)(F)F)cnc2NCc2ccc(-c3cnc4[nH]nc(N)c4c3)cc2)c1 [Example 270, 2-(4-(3-amino-1H-pyrazolo [3,4-b]pyridin-5-yl)benzylamino)-N-((1-methyl-1H-imidazol-4-yl)methyl)-5-(trifluoromethyl) nicotinamide] | 1 to 5 µM | 1 to 10 µM | 
C#CCNC(=O)c1cc(C(F)(F)F)cnc1NCc1ccc(-c2cnc3[nH]nc(N)c3c2)cc1 [Example 271, 2-(4-(3-amino-1H-pyrazolo [3,4-b]pyridin-5-yl)benzylamino)-N-(prop-2-ynyl)-5-(trifluoromethyl) nicotinamide] | 0.1 to 1 µM | 1 to 10 µM | 
